In assay [1] the test system is acetic acid induced writhing. Kind of assay: Acetic acid induced writhing test. The assay is classed as in vivo. Conditions: mice. The method, then:
The animals were divided into various groups I-XVI consisting of 8 experimental animals for control, sample compounds (WE-1 to WE-7) and standard. Group I: Control, Group II-XV: WE-1 to WE-7 (sample compounds) at dose of 10 mg/kg and 20 mg/kg and Group XVI: Standard. The control (Group I) was given normal saline. Group II-XV received 10 mg/kg and 20 mg/kg of test sample (WE-1 to WE-7). […] The writhing test, following a previously established method, was conducted to assess the analgesic potential of the aurone derivatives. The mice were orally administered samples compounds (WE-1 to WE-7)and standard (Diclofenac sodium 10 mg/kg) 1 h before intraperitoneal administration 10 ml/kg of 1 % acetic acid. Five minutes after the acetic acid administration, the numbers of writhing episodes were counted for 10 min, and the percentage of inhibition was subsequently calculated.

Assay [2] relates to formalin induced paw licking. In words: Formalin induced paw licking test. The following applies: late phase, mice. The assay is classed as in vivo. As for the experimental part: The animals were divided into various groups I-XVI consisting of 8 experimental animals for control, sample compounds (WE-1 to WE-7) and standard. Group I: Control, Group II-XV: WE-1 to WE-7 (sample compounds) at dose of 10 mg/kg and 20 mg/kg and Group XVI: Standard. The control (Group I) was given normal saline. Group II-XV received 10 mg/kg and 20 mg/kg of test sample (WE-1 to WE-7). […] The acute peripheral and centrally mediated analgesic activity of aurone derivatives was evaluated using the formalin-induced pain method, as described. Samples compounds (WE-1 to WE-7) and a standard (Indomethacin 10 mg) were orally administered 30 min prior to 20 μl of 1 % formalin injection (prepared in 0.9 % saline) in right hind paw of the mice and immediately placed in a clear box to observe the animal's reaction. Paw licking or biting within 0–5 min indicated Phase 1, while animal reactions observed between 15 and 30 min indicated Phase 2. The number of paw licking or biting events was compared to the control group, and the percentage of inhibition was calculated.

Assay [3] relates to heat induced tail flicking latency. Kind of assay: Tail immersion test. It is filed as in vivo. Conditions: mice. As for the experimental part: Group I: Control, Group II-XV: WE-1 to WE-7 (sample compounds) at dose of 10 mg/kg and 20 mg/kg and Group XVI: Standard. The control (Group I) was given normal saline. Group II-XV received 10 mg/kg and 20 mg/kg of test sample (WE-1 to WE-7).
(§1) The cut-off time was set at 25 s, and the time taken for the mice to flick their tails out of the water was recorded at 30, 60, 90, and 120-min intervals. An increase in the time of tail immersion was compared to the control group to determine the analgesic effect of the tested drugs. The percentage of inhibition was calculated at the time interval showing the highest effect.

The target of assay [4] is T1, 5-LOX (Homo sapiens, UniProt P09917).
T1 sequence (P09917 1-674): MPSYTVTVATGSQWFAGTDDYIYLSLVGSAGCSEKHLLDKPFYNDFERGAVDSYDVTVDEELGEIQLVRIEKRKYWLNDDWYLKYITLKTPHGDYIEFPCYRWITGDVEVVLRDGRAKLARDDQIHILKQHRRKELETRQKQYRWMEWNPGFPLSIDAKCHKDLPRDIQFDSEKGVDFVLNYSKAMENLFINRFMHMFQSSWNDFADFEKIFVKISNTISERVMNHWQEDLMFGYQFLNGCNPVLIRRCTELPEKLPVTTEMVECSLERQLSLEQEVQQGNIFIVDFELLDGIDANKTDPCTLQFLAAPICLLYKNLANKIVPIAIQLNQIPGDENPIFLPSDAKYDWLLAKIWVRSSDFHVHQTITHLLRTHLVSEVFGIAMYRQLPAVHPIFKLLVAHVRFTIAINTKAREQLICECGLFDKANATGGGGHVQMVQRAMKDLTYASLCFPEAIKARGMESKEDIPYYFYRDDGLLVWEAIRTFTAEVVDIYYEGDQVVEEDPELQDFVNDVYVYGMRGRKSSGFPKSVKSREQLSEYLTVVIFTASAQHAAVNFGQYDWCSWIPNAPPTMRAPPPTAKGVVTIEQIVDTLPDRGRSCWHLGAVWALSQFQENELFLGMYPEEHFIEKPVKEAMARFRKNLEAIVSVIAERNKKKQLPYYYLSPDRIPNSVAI
Kind of assay: LOX inhibitory assay. It is filed as biochemical. As for the experimental part:
The assay was performed according to previously reported procedure. […] Enzyme 5-LOX and DCFDA were incubated for 5 min. After the addition of the test compound, it was further incubated for 10 min. By the addition of substrate arachadonic acid and ATP, the reaction was initiated.

The target in assay [5] is T2, COX-2 enzyme (Homo sapiens, UniProt P35354).
T2 construct: purchased Sigma Aldrich
T2 sequence (P35354 18-604): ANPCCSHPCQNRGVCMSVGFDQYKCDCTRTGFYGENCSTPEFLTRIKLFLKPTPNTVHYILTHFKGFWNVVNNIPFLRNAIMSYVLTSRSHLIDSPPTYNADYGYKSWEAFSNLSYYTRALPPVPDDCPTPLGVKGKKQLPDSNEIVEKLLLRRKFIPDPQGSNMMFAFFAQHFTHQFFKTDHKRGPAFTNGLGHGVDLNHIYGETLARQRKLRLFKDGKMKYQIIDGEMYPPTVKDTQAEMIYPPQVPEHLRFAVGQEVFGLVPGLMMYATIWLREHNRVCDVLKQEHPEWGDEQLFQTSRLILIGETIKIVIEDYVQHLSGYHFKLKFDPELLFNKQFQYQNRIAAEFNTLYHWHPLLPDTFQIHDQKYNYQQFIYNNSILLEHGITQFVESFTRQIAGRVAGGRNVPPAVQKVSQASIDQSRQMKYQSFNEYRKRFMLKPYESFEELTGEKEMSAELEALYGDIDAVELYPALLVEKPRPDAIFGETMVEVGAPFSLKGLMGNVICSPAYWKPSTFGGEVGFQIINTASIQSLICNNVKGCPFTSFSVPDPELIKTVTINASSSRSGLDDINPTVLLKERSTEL
Kind of assay: COX-2 inhibitory assay. The assay is classed as biochemical. The method, then:
COX-2 inhibition was measured spectrophotometrically at 550 nm after the formation of oxidized form of tetramethlenephenylenediamine (TMPD). This assay was conducted according to previously reported procedure. […] The reaction contained 10 μL COX-2 enzymes (100 μM in diluted in DMSO), 10 μL haem of 2.2 mM diluted in DMSO, tris buffers (pH. 8, 100 μl) and drug samples according to the above stated procedure. The reaction was started by the addition of freshly prepared TMPD and methanolic arachidonic acid (AA). Celecoxib is used as a reference drug in this assay. After 5 min of incubation at 25–28C, the absorbance was measured at 550 nm and inhibition was calculated.

Assay [6] relates to opioid receptors (tail flicking latency). In words: Assessment of opioid mechanism via tail immersion test with Naloxone. It is filed as in vivo. The following applies: mice; for Latency response 30 min: control 3.14 ± 0.31; for Latency response 60 min: control 3.17 ± 0.41; for Latency response 120 min: control 3.20 ± 0.29; for Latency response 90 min: control 3.31 ± 0.44. The method, then:
as §1
To verify the involvement of the opioid mechanism, following the approach outlined in the published study. […] These derivatives were assessed for their potential opioid activity within the control, sample compounds and standard groups using the tail immersion test.

Where [7] appears, read: Table 2, read-out: LOX (IC50 μM).
The mark [8] stands for this setting: as repeated in Table 4, read-out: Human LOX (IC50 μM).

Read-outs that look alike come from different tables or passages of the source.

Turning to `O=C(O)Cc1ccccc1Nc1c(Cl)cccc1Cl` [diclofenac sodium, Diclofenac Sodium, reference compound], in assay [1] (10 mg/kg oral), the “percent analgesic effect (inhibition of writhing)” value was 84.90%. Besides, in assay [1] (10 mg/kg oral, mean ± SEM, control 61.22 ± 3.90), the number of writhing is listed as 9.24 ± 1.51.

On to `COc1ccc2c(c1)c(CC(=O)O)c(C)n2C(=O)c1ccc(Cl)cc1` [indomethacin, Indomethacin, reference compound], for which the “percentage inhibition of paw licking, Phase II” value (from here on “percentage inhibition … Phase II”) in assay [2] (10 mg/kg oral) was determined as 81.85%.

For the compound `CN1CC[C@]23c4c5ccc(O)c4O[C@H]2[C@@H](O)C=C[C@H]3[C@H]1C5` [Morphine, reference compound], the “percentage inhibition of pain, tail immersion” value in assay [3] (2 mg/kg oral) stood at 85.42%.

With `O=Cc1ccc(C=C2Oc3ccccc3C2=O)cc1` [WE-6], the IC50 in assay [4] (setting [7]) turned out to be 1.17 µM; in assay [4] (setting [8]), 1.17 µM; in assay [5] (Table 2) it was 1.13 µM; in assay [5] (as repeated in Table 4), 1.13 µM.

Regarding `O=C1C(=Cc2ccccc2)Oc2ccccc21` [WE-1], the half-maximal inhibitory concentration (IC50) in assay [4] (setting [7]) turned out to be 1.45 µM; in assay [4] (setting [8]), 1.45 µM; in assay [5] (Table 2), 1.27 µM; in assay [5] (as repeated in Table 4) it was 1.27 µM.

As to `COc1ccc(C=C2Oc3ccccc3C2=O)cc1` [WE-3], the “Latency response 30 min” value amounted to 3.66 ± 0.41 in assay [6] (10 mg/kg + Naloxone 2 mg/kg) and 3.35 ± 0.49 in assay [6] (20 mg/kg + Naloxone 2 mg/kg). Further, the “Latency response 60 min” value is on record as 4.60 ± 0.49 in assay [6] (10 mg/kg + Naloxone 2 mg/kg) and 4.76 ± 0.51 in assay [6] (20 mg/kg + Naloxone 2 mg/kg). Further, the “Latency response 120 min” value in assay [6] (10 mg/kg + Naloxone 2 mg/kg) is given as 4.01 ± 0.61; in assay [6] (20 mg/kg + Naloxone 2 mg/kg), 4.15 ± 0.56. Further, the “Latency response 90 min” value in assay [6] (10 mg/kg + Naloxone 2 mg/kg) is 4.71 ± 0.66; in assay [6] (20 mg/kg + Naloxone 2 mg/kg) it was 5.14 ± 0.61. The “percentage inhibition of pain, tail immersion” value in assay [3] (20 mg/kg oral, at interval of highest effect) worked out at 71.36%. Also, the IC50 in assay [4] (setting [7]) came to 0.52 µM; in assay [4] (setting [8]), 0.52 µM; in assay [5] (Table 2), 0.47 µM; in assay [5] (as repeated in Table 4), 0.47 µM. In addition, in assay [2] (20 mg/kg oral), the “percentage inhibition … Phase II” value is “over 60%”.

On to `O=C(O)c1ccc(C=C2Oc3ccccc3C2=O)cc1` [WE-5], for which the IC50 in assay [4] (setting [7]) is 1.12 µM; in assay [4] (setting [8]), 1.12 µM; in assay [5] (Table 2), 1.21 µM; in assay [5] (as repeated in Table 4) it was 1.21 µM.

Consider `O=C1C(=Cc2ccc(Cl)cc2)Oc2ccccc21` [WE-2], for which the figures for the “Latency response 30 min” value in assay [6] (10 mg/kg + Naloxone 2 mg/kg) and in assay [6] (20 mg/kg + Naloxone 2 mg/kg) were 3.61 ± 0.41 and 3.70 ± 0.39, respectively. For the same compound, the “Latency response 60 min” value in assay [6] (10 mg/kg + Naloxone 2 mg/kg) is 4.11 ± 0.40; in assay [6] (20 mg/kg + Naloxone 2 mg/kg), 4.30 ± 0.51. Further, the “Latency response 120 min” value is 3.19 ± 0.32 in assay [6] (10 mg/kg + Naloxone 2 mg/kg) and 3.80 ± 0.55 in assay [6] (20 mg/kg + Naloxone 2 mg/kg). In addition, the “Latency response 90 min” value in assay [6] (10 mg/kg + Naloxone 2 mg/kg) is 4.03 ± 0.41; in assay [6] (20 mg/kg + Naloxone 2 mg/kg), 4.59 ± 0.60. The “percent analgesic effect (inhibition of writhing)” value turned out to be 63.44% in assay [1] (10 mg/kg oral) and 64.94% in assay [1] (20 mg/kg oral). Besides, the 50% inhibitory concentration (IC50) in assay [4] (setting [7]) worked out at 0.86 µM; in assay [4] (setting [8]), 0.86 µM; in assay [5] (Table 2), 0.82 µM; in assay [5] (as repeated in Table 4) it was 0.82 µM. The “percentage inhibition … Phase II” value in assay [2] (20 mg/kg oral) was “over 60%”.

Turning to `O=C1C(=Cc2ccc(F)cc2)Oc2ccccc21` [WE-7], the “Latency response 30 min” value in assay [6] (10 mg/kg + Naloxone 2 mg/kg) is listed as 3.48 ± 0.46; in assay [6] (20 mg/kg + Naloxone 2 mg/kg) it was 3.50 ± 0.67. The “Latency response 60 min” value in assay [6] (10 mg/kg + Naloxone 2 mg/kg) was 4.11 ± 0.48; in assay [6] (20 mg/kg + Naloxone 2 mg/kg), 4.35 ± 0.61. For the same compound, the “Latency response 120 min” value came to 3.40 ± 0.60 in assay [6] (10 mg/kg + Naloxone 2 mg/kg) and 3.51 ± 0.66 in assay [6] (20 mg/kg + Naloxone 2 mg/kg). Further, the figures for the “Latency response 90 min” value in assay [6] (10 mg/kg + Naloxone 2 mg/kg) and in assay [6] (20 mg/kg + Naloxone 2 mg/kg) were 4.11 ± 0.40 and 5.01 ± 0.60, respectively. For the same compound, the “percent analgesic effect (inhibition of writhing)” value in assay [1] (20 mg/kg oral) is “more than 60%”. Besides, the concentration for half-maximal inhibition (IC50) worked out at 0.74 µM in assay [4] (setting [7]), 0.74 µM in assay [4] (setting [8]), 0.63 µM in assay [5] (Table 2) and 0.63 µM in assay [5] (as repeated in Table 4). Further, in assay [2] (20 mg/kg oral), the “percentage inhibition … Phase II” value is reported as “over 60%”.

Consider `COc1cccc(C2(O)CCCCC2CN(C)C)c1` (stereo not shown) [Tramadol, reference compound], for which, in assay [6] (10 mg/kg + Naloxone 2 mg/kg), the “Latency response 30 min” value was 3.53 ± 0.44, the “Latency response 60 min” value came to 4.60 ± 0.59, the “Latency response 120 min” value turned out to be 3.48 ± 0.44 and the “Latency response 90 min” value was 3.70 ± 0.48. In addition, the tail flicking latency in assay [3] (10 mg/kg, after 90 min, without Naloxone) is reported as 17.74 ± 1.33.

For orientation: IC50 means the point on the concentration scale where inhibition reaches its midpoint.

The record behind these values is article PMC11058299, “Synthesis, molecular docking evaluation for LOX and COX-2 inhibition and determination of in-vivo analgesic potentials of aurone derivatives” (Heliyon, 2024).
